Among the data in PubChem BioAssay (NCI) are TGI and GI50 values, retold here.

Some test systems named below: MDA-MB-435; A549 NSCLC; HOP-62 NSCLC; A498 renal; SF-539 CNS; HOP-92 NSCLC; OVCAR-8 ovarian; HCT-15 colon; ACHN renal; MOLT-4 leukemia.
Test in all cases: NCI-60 cell line screen, 48 h

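Interpolation was linear, between the two tested concentrations surrounding the appropriate level; five concentrations were tested over 48 hours in 96-well plates. The concentration for 50% growth inhibition is given as GI50. At the TGI there is no net growth.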

As to `C[C@]12CCC(=O)C=C1CC[C@@H]1[C@@H]2[C@@H](O)C[C@@]2(C)[C@H]1CC[C@]2(O)C(=O)COC(=O)C1CCCC1`, the TGI in the experiment with MDA-MB-435, in the experiment on A549 NSCLC, with HOP-62 NSCLC, in the experiment on A498 renal, in the experiment with SF-539 CNS and with HOP-92 NSCLC was above 100 µM throughout. Besides, the TGI with OVCAR-8 ovarian, in the experiment on HCT-15 colon and in the experiment on ACHN renal was above 100 µM each time.
As for `O=S(O)c1cc(Cl)cc(Cl)c1OCc1ccccc1`, the TGI in the experiment on MOLT-4 leukemia, with HOP-62 NSCLC, with A498 renal, in the experiment on SF-539 CNS and with ACHN renal was above 100 µM in each case.
As for `Cc1ccc(SSCCCCCS(=O)O)cc1`, the TGI in the experiment on MOLT-4 leukemia is 40.3 µM; in the experiment with HOP-62 NSCLC, 56.4 µM; with A498 renal, 52 µM; with SF-539 CNS it was 30.3 µM; with ACHN renal, above 100 µM.
Take `CC(=O)C1=C(O)CCC1=O`: the TGI in the experiment on MDA-MB-435, in the experiment on A549 NSCLC, in the experiment with MOLT-4 leukemia, in the experiment with HOP-62 NSCLC, in the experiment with SF-539 CNS and with HOP-92 NSCLC was above 100 µM each time. Also, the TGI in the experiment with OVCAR-8 ovarian and in the experiment with ACHN renal was above 100 µM throughout.
Regarding `COc1ccc2nc3ccccc3c(NCc3ccc(C)cc3)c2c1`, the GI50 in the experiment with MDA-MB-435 is 1440 nM; in the experiment with A549 NSCLC, 1960 nM; with MOLT-4 leukemia, 3040 nM; in the experiment on HOP-62 NSCLC it was 1780 nM; in the experiment on A498 renal, 1650 nM; with SF-539 CNS, 1680 nM. Besides, the GI50 was 1270 nM with HOP-92 NSCLC, 2240 nM in the experiment on OVCAR-8 ovarian, 1730 nM with HCT-15 colon and 1580 nM with ACHN renal. The TGI with MDA-MB-435 is 2.89 µM; in the experiment on A549 NSCLC it was 4.71 µM; in the experiment with MOLT-4 leukemia, 11.5 µM; in the experiment on HOP-62 NSCLC, 3.7 µM; in the experiment on A498 renal, 3.05 µM; in the experiment with SF-539 CNS, 3.18 µM. Moreover, the TGI worked out at 3.12 µM in the experiment with HOP-92 NSCLC, 7.27 µM with OVCAR-8 ovarian, 4.76 µM in the experiment with HCT-15 colon and 3.03 µM with ACHN renal.
For the compound `Clc1ccc(-c2nnc(-c3c(Cl)c(Cl)c(Cl)c(Cl)c3-c3nc4ccccc4[nH]3)o2)cc1`, the TGI with MDA-MB-435, in the experiment on MOLT-4 leukemia, in the experiment on HOP-62 NSCLC, in the experiment with A498 renal, in the experiment with SF-539 CNS and with HOP-92 NSCLC was above 100 µM each time. Further, the TGI in the experiment with OVCAR-8 ovarian, with HCT-15 colon and in the experiment on ACHN renal was above 100 µM throughout.
On to `COc1cc2c(cc1OC)-c1cc3ccc(OC)c(OC)c3c[n+]1CC2`, for which the TGI in the experiment with MDA-MB-435, in the experiment on A549 NSCLC, in the experiment with MOLT-4 leukemia, in the experiment on HOP-62 NSCLC, in the experiment on SF-539 CNS and with HOP-92 NSCLC was above 100 µM in each case. The TGI with OVCAR-8 ovarian, with HCT-15 colon and with ACHN renal was above 100 µM in each case.
On to `C[N+](C)(CCO)CCN1c2ccccc2Sc2ccccc21`, for which the TGI in the experiment with MDA-MB-435, with A549 NSCLC, with MOLT-4 leukemia, in the experiment with HOP-62 NSCLC, with A498 renal and in the experiment with SF-539 CNS was above 10 µM throughout. Moreover, the TGI in the experiment on OVCAR-8 ovarian, with HCT-15 colon and with ACHN renal was above 10 µM throughout.
With `Fc1c(F)c(C(F)(F)F)c(F)c(F)c1N/N=C/c1cn(Cc2ccccc2)c2ccccc12`, the TGI with MDA-MB-435 came out at 54.5 µM; in the experiment with A549 NSCLC, 72.7 µM; in the experiment with MOLT-4 leukemia it was 83.3 µM; in the experiment with HOP-62 NSCLC, 22.4 µM; in the experiment on A498 renal, 88.6 µM; in the experiment with SF-539 CNS it was 42.1 µM. Also, the TGI with HOP-92 NSCLC is 60.2 µM; in the experiment on OVCAR-8 ovarian it was above 100 µM; with HCT-15 colon it was above 100 µM; with ACHN renal, 81.7 µM.
Take `COc1ccc2c(c1)CC[C@@H]1[C@@H]2CC[C@]2(C)C(=O)/C(=C/c3ccc(O)c(OC)c3)C[C@@H]12`: the TGI in the experiment with MDA-MB-435 was above 100 µM; with A549 NSCLC, above 100 µM; in the experiment on MOLT-4 leukemia, 92.1 µM; in the experiment with HOP-62 NSCLC it was above 100 µM; in the experiment with A498 renal it was above 100 µM; in the experiment on HOP-92 NSCLC, above 100 µM. For the same compound, the TGI with OVCAR-8 ovarian was above 100 µM; with HCT-15 colon, 72.6 µM; in the experiment on ACHN renal, above 100 µM.
On to `COc1ccc(C2C(C=O)C(N3CCN(C)CC3)=Nc3nc4ccccc4n32)cc1` (configuration not stated), for which the TGI was 39.7 µM with MDA-MB-435; 38.5 µM in the experiment on A549 NSCLC; 12.3 µM in the experiment with MOLT-4 leukemia; 28.7 µM with HOP-62 NSCLC; 29.1 µM in the experiment with A498 renal; 54.5 µM in the experiment on SF-539 CNS. For the same compound, the TGI with HOP-92 NSCLC was 24.3 µM; with OVCAR-8 ovarian, 33.1 µM; in the experiment with HCT-15 colon, 46.5 µM; with ACHN renal it was 41.8 µM.
Regarding `O=C1C[C@H](CCC(=O)OCc2ccccc2)NC(=O)C[C@H](CCC(=O)OCc2ccccc2)NC(=O)C[C@H](CCC(=O)OCc2ccccc2)N1`, the TGI is above 100 µM in the experiment on MDA-MB-435; above 100 µM in the experiment with A549 NSCLC; above 100 µM in the experiment with MOLT-4 leukemia; above 100 µM with HOP-62 NSCLC; 30.8 µM in the experiment on A498 renal; 40.4 µM in the experiment with SF-539 CNS. The TGI is 18.8 µM with HOP-92 NSCLC, above 100 µM in the experiment on OVCAR-8 ovarian, above 100 µM with HCT-15 colon and 69.4 µM with ACHN renal.
Consider `COc1cc2c(cc1OCCCN1CCN(c3ncnc4ccccc34)CC1)N=CC1CCCN1C2=O` (configuration not stated), for which the GI50 was 21.4 nM in the experiment on MDA-MB-435; 35.6 nM in the experiment on A549 NSCLC; 17.5 nM in the experiment with MOLT-4 leukemia; 28.2 nM in the experiment on HOP-62 NSCLC; 27.1 nM in the experiment with SF-539 CNS; 19.9 nM in the experiment with HOP-92 NSCLC. Moreover, the GI50 in the experiment with OVCAR-8 ovarian is 43 nM; in the experiment with ACHN renal it was 42.6 nM. Also, the TGI in the experiment on MDA-MB-435 was 0.0498 µM; with A549 NSCLC, above 47.9 µM; in the experiment with MOLT-4 leukemia it was 0.0596 µM; in the experiment with HOP-62 NSCLC it was 0.278 µM; in the experiment on A498 renal, 0.0164 µM; with SF-539 CNS, 0.0696 µM. Moreover, the TGI is 0.0529 µM in the experiment with HOP-92 NSCLC, above 53.6 µM in the experiment on OVCAR-8 ovarian and 0.564 µM in the experiment with ACHN renal.
For the compound `O=c1/c(=C/c2ccc([N+](=O)[O-])o2)sc2n1[C@@H](c1ccc3c(c1)OCO3)C=C(c1cc(F)c(Cl)cc1Cl)N=2`, the TGI with MDA-MB-435 is 35.3 µM; in the experiment with A549 NSCLC it was above 100 µM; with MOLT-4 leukemia, above 100 µM; in the experiment with HOP-62 NSCLC, 58.9 µM; with A498 renal, above 100 µM; in the experiment on SF-539 CNS, above 100 µM. Besides, the TGI in the experiment on HOP-92 NSCLC was determined as 26.6 µM; in the experiment on OVCAR-8 ovarian, 56.4 µM; with HCT-15 colon it was 64.9 µM; in the experiment with ACHN renal it was 33.2 µM.
For the compound `N#C[S-].[Ce+3].c1cnc2c(c1)ccc1cccnc12.c1cnc2c(c1)ccc1cccnc12.c1cnc2c(c1)ccc1cccnc12`, the TGI in the experiment with A549 NSCLC is 10.1 µM; in the experiment with MOLT-4 leukemia it was above 100 µM; with HOP-62 NSCLC, 35.7 µM; with A498 renal, 14.5 µM; in the experiment with SF-539 CNS it was 16 µM; in the experiment with HOP-92 NSCLC it was 22.7 µM. In addition, the figures for the TGI in the experiment on OVCAR-8 ovarian and in the experiment with ACHN renal were 17.5 µM and 11.7 µM, respectively.
Take `NC(CC(=O)O)(Cc1ccccc1)C(=O)O` (configuration not stated): the TGI in the experiment with MDA-MB-435, in the experiment with A549 NSCLC, with MOLT-4 leukemia, in the experiment on HOP-62 NSCLC, in the experiment with A498 renal and with SF-539 CNS was above 100 µM throughout. Further, the TGI with HOP-92 NSCLC, in the experiment with OVCAR-8 ovarian, in the experiment with HCT-15 colon and with ACHN renal was above 100 µM each time.
On to `Cn1c(=O)c2c(nc(NCCNc3nc4c(c(=O)n(C)c(=O)n4C)n3C)n2C)n(C)c1=O`, for which the TGI in the experiment with MDA-MB-435, in the experiment on A549 NSCLC, with MOLT-4 leukemia, in the experiment with HOP-62 NSCLC, with A498 renal and in the experiment on HOP-92 NSCLC was above 100 µM throughout. In addition, the TGI with OVCAR-8 ovarian, with HCT-15 colon and in the experiment on ACHN renal was above 100 µM each time.
